According to patent EP0104826A2, “Immunomodulator and method of use for immunomodulation” (FUJISAWA PHARMACEUTICAL CO., LTD., priority 1982, dated 1984):

What was measured:
Type in all cases: in vivo
[1] = tested on: antibody forming capacities; assay: Antibody forming capacity (PFC-SRBC) in mice immunosuppressed with mitomycin C; conditions: BDF1 mice; Mitomycin C (1.0 mg/kg) i.p. + Saline
Protocol: Female BDF1 (8 weeks in age) mice were injected intraperitoneally with mitomycin C (1 mg/kg) from four days before immuization with 5 x 10^8 SRBC, every day for three days. Samples also were administered to mice intraperitoneally from four days before immunization, every day for five days.
At day 9, mice were sacrificed and the number of direct plaque forming cells per spleen was measured by using Cunningham modification method.

thymus = assay: Dexamethasone-induced thymus atrophy in mice; conditions: ddY mice; dexamethasone 1 ug/ml in drinking water, no sample; n=5
Protocol: Five week-old ddY mice(male) were used. Samples were given subcutaneously twice per day from day 0 to day 2 of the experiment. Five hours after first medication on day 0, mice were supplied with drinking water containing 1 ug/ml of dexamethasone.
At day 2, the weight of thymus of the treated mice was compared with that of the nontreated controls.

[2] = tested on: antibody forming capacities; assay: Antibody forming capacity (PFC-SRBC) in mice immunosuppressed with cyclophosphamide; conditions: BDF1 mice; Cyclophosphamide (22.5 mg/kg) i.p. + Saline
Protocol: Female BDF1 (8 weeks in age) mice were injected intraperitoneally with cyclophosphamide (22.5 mg/kg) 4 days before immunization with 5 x 10^8 SRBC. Samples were administered to mice i.p. from four days before immunization, every day for five days.
Mouse splenic lymphocytes producing antibody against SRBC were quantitated by using Cunningham modification method described previously.

SMILES: CO[C@@]12[C@H](COC(N)=O)C3=C(C(=O)C(C)=C(N)C3=O)N1C[C@@H]1N[C@@H]12 [Mitomycin C, reference compound]
- PFC-SRBC/spleen (average number of 5 mice/group) [1]: 12.65 x 10^4 PFC-SRBC/spleen

SMILES: C[C@@H]1C[C@H]2[C@@H]3CCC4=CC(=O)C=C[C@]4(C)[C@@]3(F)[C@@H](O)C[C@]2(C)[C@@]1(O)C(=O)CO [Dexamethasone, reference compound]
- Thymus weight (thymus): 57.2 mg/mouse

SMILES: O=P1(N(CCCl)CCCl)NCCCO1 (stereo not drawn) [Cyclophosphamide, reference compound]
- PFC-SRBC/spleen (average number of 5 mice/group) [2]: 8.46 x 10^4 PFC-SRBC/spleen
